In ChEMBL document CHEMBL1909046, “DrugMatrix in vitro pharmacology data”:

Experiments:
[1] = DRUGMATRIX: Tumor Necrosis Factor (TNF), Non-Selective radioligand binding (ligand: [125I] TNF-alpha); format: cell membranes, Membrane; settings: u-937; Not Active = under 50% inhibition at 10 µM
[2] = target: T1, C-X-C chemokine receptor type 1 (Homo sapiens, UniProt P25024); note: in other assays of this panel Not Active means under 50% inhibition at 10 µM
T1 sequence (P25024 whole entry): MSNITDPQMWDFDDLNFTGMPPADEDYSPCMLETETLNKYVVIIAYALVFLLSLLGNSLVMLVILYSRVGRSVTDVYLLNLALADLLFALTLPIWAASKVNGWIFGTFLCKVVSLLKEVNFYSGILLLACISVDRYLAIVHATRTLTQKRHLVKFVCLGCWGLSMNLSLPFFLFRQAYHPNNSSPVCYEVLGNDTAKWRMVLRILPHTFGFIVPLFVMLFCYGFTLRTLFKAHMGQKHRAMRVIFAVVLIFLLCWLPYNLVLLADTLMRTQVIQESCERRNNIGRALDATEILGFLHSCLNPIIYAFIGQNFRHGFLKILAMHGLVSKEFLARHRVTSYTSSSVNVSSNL

[3] = target: T2, Endothelin-1 receptor (Homo sapiens, UniProt P25101); format: cell membranes, Membrane; settings: cho-k1; note: in other assays of this panel Not Active means under 50% inhibition at 10 µM
T2 sequence (P25101 whole entry): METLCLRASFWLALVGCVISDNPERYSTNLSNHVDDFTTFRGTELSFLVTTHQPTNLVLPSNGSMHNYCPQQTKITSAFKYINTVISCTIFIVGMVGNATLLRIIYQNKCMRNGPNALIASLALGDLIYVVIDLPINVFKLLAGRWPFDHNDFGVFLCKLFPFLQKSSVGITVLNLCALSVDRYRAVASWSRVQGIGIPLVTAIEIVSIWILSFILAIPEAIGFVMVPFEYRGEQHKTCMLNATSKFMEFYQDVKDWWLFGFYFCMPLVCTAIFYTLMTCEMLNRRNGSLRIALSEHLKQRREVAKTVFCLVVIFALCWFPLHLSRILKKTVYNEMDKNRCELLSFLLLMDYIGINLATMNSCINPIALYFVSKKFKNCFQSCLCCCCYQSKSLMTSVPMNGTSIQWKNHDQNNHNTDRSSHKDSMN

[4] = DRUGMATRIX: Sodium/nucleoside co-transporter radioligand binding (ligand: nitrobenzylthioinosine); format: cell membranes, Cavia porcellus, Dunkin-Hartley, Cerebral cortex, Membrane; settings: Not Active = under 50% inhibition at 10 µM
[5] = target: Vasopressin V1a receptor (Homo sapiens, UniProt P37288); format: cell membranes, Membrane; settings: hek293; note: in other assays of this panel Not Active means under 50% inhibition at 10 µM
Vasopressin V1a receptor, sequence (P37288 whole entry): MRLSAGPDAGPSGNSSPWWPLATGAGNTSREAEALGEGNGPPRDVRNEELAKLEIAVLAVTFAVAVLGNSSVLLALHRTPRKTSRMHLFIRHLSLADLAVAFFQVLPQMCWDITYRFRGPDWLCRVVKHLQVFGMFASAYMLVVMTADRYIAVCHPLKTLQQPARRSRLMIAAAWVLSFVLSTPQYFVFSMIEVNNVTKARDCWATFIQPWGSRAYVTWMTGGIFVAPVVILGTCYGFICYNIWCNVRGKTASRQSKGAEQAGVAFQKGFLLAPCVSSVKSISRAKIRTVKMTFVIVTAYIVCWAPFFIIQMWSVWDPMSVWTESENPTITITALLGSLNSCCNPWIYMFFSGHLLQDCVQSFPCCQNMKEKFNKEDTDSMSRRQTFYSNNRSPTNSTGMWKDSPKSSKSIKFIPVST

[6] = DRUGMATRIX: Glutamate, NMDA, Phencyclidine radioligand binding (ligand: [3H] TCP); format: cell membranes, Rattus norvegicus, Wistar, Cerebral cortex, Membrane; settings: Not Active = under 50% inhibition at 10 µM
[7] = DRUGMATRIX: Platelet-Derived Growth Factor (PDGF) radioligand binding (ligand: [125I] PDGF); format: cell-based; settings: nih3t3; Not Active = under 50% inhibition at 10 µM
[8] = target: T3, Receptor-type tyrosine-protein phosphatase C (Homo sapiens, UniProt P08575); set-up: species or system Escherichia coli;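 note: inhibition of CD45 enzyme activity measured using DiFMUP as substrate; in other assays of this panel Not Active means under 50% inhibition at 10 µM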
T3 sequence (P08575 whole entry): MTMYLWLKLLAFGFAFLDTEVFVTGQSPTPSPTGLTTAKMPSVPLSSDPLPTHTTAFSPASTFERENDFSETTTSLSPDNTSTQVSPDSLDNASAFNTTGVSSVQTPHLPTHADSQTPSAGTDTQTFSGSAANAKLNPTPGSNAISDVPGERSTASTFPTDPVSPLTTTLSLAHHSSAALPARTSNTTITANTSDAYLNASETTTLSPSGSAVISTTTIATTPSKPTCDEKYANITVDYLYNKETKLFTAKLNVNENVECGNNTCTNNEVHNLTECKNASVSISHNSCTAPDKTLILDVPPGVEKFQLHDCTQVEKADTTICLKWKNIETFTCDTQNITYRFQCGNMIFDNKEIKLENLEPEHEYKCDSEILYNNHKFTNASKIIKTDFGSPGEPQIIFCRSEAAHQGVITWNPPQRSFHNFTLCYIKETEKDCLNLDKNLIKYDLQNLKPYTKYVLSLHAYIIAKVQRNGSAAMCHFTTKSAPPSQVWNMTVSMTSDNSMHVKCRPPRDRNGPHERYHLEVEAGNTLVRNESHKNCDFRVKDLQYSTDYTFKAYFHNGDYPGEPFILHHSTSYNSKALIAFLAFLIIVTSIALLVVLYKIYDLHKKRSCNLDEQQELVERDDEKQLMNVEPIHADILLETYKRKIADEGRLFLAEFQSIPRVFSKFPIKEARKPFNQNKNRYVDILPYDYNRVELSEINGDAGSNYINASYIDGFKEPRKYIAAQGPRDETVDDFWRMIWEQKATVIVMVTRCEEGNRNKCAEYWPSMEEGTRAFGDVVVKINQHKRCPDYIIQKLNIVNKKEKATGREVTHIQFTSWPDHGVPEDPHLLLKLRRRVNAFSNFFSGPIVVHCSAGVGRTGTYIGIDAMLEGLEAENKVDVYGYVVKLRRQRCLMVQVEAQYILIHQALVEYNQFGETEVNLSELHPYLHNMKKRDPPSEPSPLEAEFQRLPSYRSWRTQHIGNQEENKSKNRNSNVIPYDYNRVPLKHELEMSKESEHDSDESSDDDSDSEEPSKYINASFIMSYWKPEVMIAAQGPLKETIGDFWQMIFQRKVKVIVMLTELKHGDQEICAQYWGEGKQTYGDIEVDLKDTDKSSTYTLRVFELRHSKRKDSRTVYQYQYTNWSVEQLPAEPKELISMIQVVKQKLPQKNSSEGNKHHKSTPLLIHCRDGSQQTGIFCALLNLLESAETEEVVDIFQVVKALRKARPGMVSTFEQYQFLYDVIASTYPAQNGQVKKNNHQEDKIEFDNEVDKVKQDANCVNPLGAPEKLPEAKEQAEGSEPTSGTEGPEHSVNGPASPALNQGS

[9] = DRUGMATRIX: Glutamate, Kainate radioligand binding (ligand: [3H] Kainic acid); format: cell membranes, Rattus norvegicus, Wistar, Brain, Membrane; settings: Not Active = under 50% inhibition at 10 µM

CC(C)(C#N)c1cc(Cn2cncn2)cc(C(C)(C)C#N)c1 [ANASTROZOLE]
Not Active: IC50 [1] | Ki [1] | IC50 [2] | IC50 [3] | IC50 [4] | Ki [4] | IC50 [5] | IC50 [6] | Ki [6] | IC50 [7] | Ki [7] | IC50 [8] | IC50 [9] | Ki [9]

CC12CCC(CC1=O)C2(C)C (stereo not given) [CAMPHOR]
Not Active: IC50 [1] | Ki [1] | IC50 [2] | IC50 [3] | IC50 [4] | Ki [4] | IC50 [5] | IC50 [6] | Ki [6] | IC50 [7] | Ki [7] | IC50 [8] | IC50 [9] | Ki [9]

CC12CCC(CC1)C(C)(C)O2 [EUCALYPTOL]
Not Active: IC50 [1] | Ki [1] | IC50 [2] | IC50 [3] | IC50 [4] | Ki [4] | IC50 [5] | IC50 [6] | Ki [6] | IC50 [7] | Ki [7] | IC50 [8] | IC50 [9] | Ki [9]

Cc1ccnc2c1NC(=O)c1cccnc1N2C1CC1 [NEVIRAPINE]
Not Active: IC50 [1] | Ki [1] | IC50 [2] | IC50 [3] | IC50 [4] | Ki [4] | IC50 [5] | IC50 [6] | Ki [6] | IC50 [7] | Ki [7] | IC50 [8] | IC50 [9] | Ki [9]

Clc1cc(Cl)c(OCC#CI)cc1Cl [HALOPROGIN]
Not Active: IC50 [1] | Ki [1] | IC50 [2] | IC50 [3] | IC50 [4] | Ki [4] | IC50 [5] | IC50 [6] | Ki [6] | IC50 [7] | Ki [7] | IC50 [8] | IC50 [9] | Ki [9]

Oc1ccccc1 [PHENOL]
Not Active: IC50 [1] | Ki [1] | IC50 [2] | IC50 [3] | IC50 [4] | Ki [4] | IC50 [5] | IC50 [6] | Ki [6] | IC50 [7] | Ki [7] | IC50 [8] | IC50 [9] | Ki [9]

CCCCCCNC(=O)n1cc(F)c(=O)[nH]c1=O [CARMOFUR]
Not Active: IC50 [1] | Ki [1] | IC50 [2] | IC50 [3] | IC50 [4] | Ki [4] | IC50 [5] | IC50 [6] | Ki [6] | IC50 [7] | Ki [7] | IC50 [8] | IC50 [9] | Ki [9]

Nc1ccc(C(=O)O)c(O)c1 [AMINOSALICYLIC ACID]
Not Active: IC50 [1] | Ki [1] | IC50 [2] | IC50 [3] | IC50 [4] | Ki [4] | IC50 [5] | IC50 [6] | Ki [6] | IC50 [7] | Ki [7] | IC50 [8] | IC50 [9] | Ki [9]

COc1cc(NC(C)CCCN)c2ncccc2c1 (stereo not given) [PRIMAQUINE]
Not Active: IC50 [1] | Ki [1] | IC50 [2] | IC50 [3] | IC50 [4] | Ki [4] | IC50 [5] | IC50 [6] | Ki [6] | IC50 [7] | Ki [7] | IC50 [8] | IC50 [9] | Ki [9]

Cc1cc(C(C)(C)C)c(O)c(C)c1CC1=NCCN1 [OXYMETAZOLINE]
Not Active: IC50 [1] | Ki [1] | IC50 [2] | IC50 [3] | IC50 [4] | Ki [4] | IC50 [5] | IC50 [6] | Ki [6] | IC50 [7] | Ki [7] | IC50 [8] | IC50 [9] | Ki [9]

O=c1[nH]cnc2c1ncn2[C@H]1CC[C@@H](CO)O1 [DIDANOSINE]
Not Active: IC50 [1] | Ki [1] | IC50 [2] | IC50 [3] | IC50 [4] | Ki [4] | IC50 [5] | IC50 [6] | Ki [6] | IC50 [7] | Ki [7] | IC50 [8] | IC50 [9] | Ki [9]

CC(=O)[C@]1(O)Cc2c(O)c3c(c(O)c2[C@@H](O[C@H]2C[C@H](N)[C@H](O)[C@H](C)O2)C1)C(=O)c1ccccc1C3=O [IDARUBICIN]
Not Active: IC50 [1] | Ki [1] | IC50 [2] | IC50 [3] | IC50 [4] | Ki [4] | IC50 [5] | IC50 [6] | Ki [6] | IC50 [7] | Ki [7] | IC50 [8] | IC50 [9] | Ki [9]

COC(=O)Nc1nc2ccc(Sc3ccccc3)cc2[nH]1 [FENBENDAZOLE]
Not Active: IC50 [1] | Ki [1] | IC50 [2] | IC50 [3] | IC50 [4] | Ki [4] | IC50 [5] | IC50 [6] | Ki [6] | IC50 [7] | Ki [7] | IC50 [8] | IC50 [9] | Ki [9]

CC(C)(c1ccc(O)cc1)c1ccc(O)cc1 [BISPHENOL A]
Not Active: IC50 [1] | Ki [1] | IC50 [2] | IC50 [3] | IC50 [4] | Ki [4] | IC50 [5] | IC50 [6] | Ki [6] | IC50 [7] | Ki [7] | IC50 [8] | IC50 [9] | Ki [9]

C=C(Cl)Cl [1,1-DICHLOROETHENE]
Not Active: IC50 [1] | Ki [1] | IC50 [2] | IC50 [3] | IC50 [4] | Ki [4] | IC50 [5] | IC50 [6] | Ki [6] | IC50 [7] | Ki [7] | IC50 [8] | IC50 [9] | Ki [9]
